From patent US20120053172A1 (Cooperatieve MIRzorg U.A., priority 2009, published 2012)
Where two headings read alike, the source gives them in different places.

Experiments:
[1] = system: overweight patients with dyslipidemia; conditions: in vivo; cited from earlier work
insulin secretion = conditions: comparable dosages; cited from earlier work
obese men [2] = system: obese men
Procedure: The study was focused on detecting the early beneficial effects. […] Metformin was started in a dose of 850 mg twice daily, and was increased to 850 mg three times daily in the second week. All subjects received exercise training three times a week, and all were instructed to take a 30 minute walk after lunch and after dinner.
Dietary intake was reduced by about 30%, according to the calculation procedure described in example 1.
A total of 19 obese men with a BMI of 30-37.5 kg/m^2 participated in the study.

[3] = system: hyperinsulinaemic patients; conditions: maximal 200 mg/day in three dosages, eight weeks; placebo 5.0 kg; cited from earlier work
obese men [4] = conditions: one week, cited from earlier work
[5] = system: hyperinsulinaemic obese subjects; conditions: 8-week weight-loss diet; 32 women, 3 men; cited from earlier work
obese men [6] = conditions: cited from earlier work
[7] = system: obese hyperinsulinaemic men; conditions: high-dose, 6 months, with moderate caloric restriction and lifestyle advice; cited from earlier work
obese, healthy men = assay: First study: open, uncontrolled 6 month Diazoxide insulin suppression and weight loss study
Procedure: Fourteen obese, healthy men were studied for 6 months in an open, uncontrolled study.
All subjects received dietary advice to reduce caloric intake to meet the calculated basal requirements for ideal body weight (based on the Harrison-Bennedict equation). They were also instructed to increase walking exercise to at least 30 minutes a day. […] Subsequently, the following data were recorded every month, for a period of 6 months: body weight, abdominal circumference, supine and upright blood pressure, the results of a two-day, 8-point HGM, and adverse effects.
DZX was increased every month until a maximum of 900 mg/day was reached or until side effects occurred.

[8] = system: hyperinsulinaemic, non-diabetic adolescents; conditions: 850 mg twice daily for eight weeks; placebo 3.8%; cited from earlier work
adults = conditions: 2380±320 mg for six months; cited from earlier work
[9] = oral 300 mg per day in three dosages
[10] = after six months, mean dosage about 585 mg/day

For `CCCCCCCCCCC[C@@H](C[C@@H]1OC(=O)[C@H]1CCCCCC)OC(=O)[C@H](CC(C)C)NC=O` [Orlistat], the “(placebo-subtracted) net weight loss” value [1] is given as roughly 3 kg.
In the case of `Cc1c(C(=O)NN2CCCCC2)nn(-c2ccc(Cl)cc2Cl)c1-c1ccc(Cl)cc1` [Rimonanbant, Rimonabant], the “(placebo-subtracted) net weight loss” value [1] is listed as “about 6 kg”.
For `CNC(=NS(=O)(=O)c1ccc(Cl)cc1)N1C[C@H](c2ccccc2)C(c2ccc(Cl)cc2)=N1` [Compound A, (4S)-3-(4-chlorophenyl)-N′-[(4-chlorophenyl)sulfonyl]-N-methyl-4-phenyl-4,5-dihydro-1-H-pyrazole-1-carboximidamide], the “inhibiting insulin secretion, compared with Diazoxide” value (insulin secretion) is given as “more effective than Diazoxide”.
For `CC(C)CC(N(C)C)C1(c2ccc(Cl)cc2)CCC1` (stereo not drawn) [Sibutramine], the “(placebo-subtracted) net weight loss” value [1] is given as “about 5 kg”.
In the case of `CC1=NS(=O)(=O)c2cc(Cl)ccc2N1` [Diazoxide, 7-chloro-3-methyl-4H-1,2,4-benzothiadiazine-1,1-dioxide], the “decrease in fasting serum insulin” value (obese men [2]; 2 months, mean±SEM, Diazoxide 100 mg twice then three times a day, Metformin 850 mg twice then three times daily) is listed as 42.4±17.7%, the “serum glucose level before treatment” value (obese men [2]; in vivo) is listed as 5.7 ± 0.2 mmol/L and the weight loss [3] is listed as 9.8 kg. For the same compound, the “effect on plasma glucose and insulin levels” value (obese men [4]; oral 150 mg per day in three dosages) was “no significant effect”, the “effect on plasma glucose and insulin levels” value (obese men [4]; oral 225 mg per day in three dosages) was “no significant effect” and the “effect on fasting or postprandial glucose levels” value (obese men [4]; [9]) was “without affecting fasting or postprandial glucose levels”. For the same compound, the “reduction of plasma insulin levels” value (obese men [4]; [9]) was “about 20%”, the “effect on weight loss” value [5] was “No effect” and the “body weight after treatment” value (obese men [6]; [10]) was “about 103 kg”. For the same compound, the “plasma level of Diazoxide” value (obese men [6]; [10]) was “about 49 mg/l”, the “body weight at start” value (obese men [6]; before treatment) was “about 114 kg” and the weight reduction [7] was “relevant degree of weight reduction”. For the same compound, the “body weight after treatment” value (obese, healthy men; 6 months) was 105.7 ± 3.8 kg, the other adverse effects (obese, healthy men; 6 months) was “not observed” and the “waist circumference after treatment” value (obese, healthy men; 6 months) was 107.7±2.2 cm. The “decrease of total body fat mass” value (obese, healthy men; 6 months, DEXA) was 9.5 ± 1.9 kg, the “reduction of fasting insulin levels” value (obese, healthy men; 6 months, mean daily dose 600±54 mg, P<0.001) was 65% and the “change in total body fat mass” value (obese, healthy men; 6 months, P<0.001) was −23.3%. For the same compound, the “increase of fasting glucose” value (obese, healthy men; 6 months, P<0.01) was 0.8 ± 0.3 mmol/L, the “body weight at baseline” value (obese, healthy men; baseline) was 115.1 ± 3.4 kg and the “waist circumference at baseline” value (obese, healthy men; baseline) was 116.9±1.4 cm.
For `CN(C)C(=N)N=C(N)N` [Metformin], the weight loss [8] is listed as “about 6.5%” and the weight reduction (adults) is listed as 3.24%.
